Legend:
Type in all cases: cell-based
SN12C = test: NCI DTP in-vitro dose response, Renal Cancer
SW-620 = test: NCI DTP in-vitro dose response, Colon Cancer
HCT-116 = test: NCI DTP in-vitro dose response, Colon Cancer
SK-MEL-28 = test: NCI DTP in-vitro dose response, Melanoma
HCC-2998 = test: NCI DTP in-vitro dose response, Colon Cancer
SF-539 = test: NCI DTP in-vitro dose response, CNS Cancer
KM12 = test: NCI DTP in-vitro dose response, Colon Cancer
SF-295 = test: NCI DTP in-vitro dose response, CNS Cancer
MDA-MB-468 = test: NCI DTP in-vitro dose response, Breast Cancer
UACC-62 = test: NCI DTP in-vitro dose response, Melanoma
CAKI-1 = test: NCI DTP in-vitro dose response, Renal Cancer
U251 [1] = test: NCI DTP in-vitro dose response, CNS Cancer
M14 = test: NCI DTP in-vitro dose response, Melanoma
T-47D = test: NCI DTP in-vitro dose response, Breast Cancer
HT29 = test: NCI DTP in-vitro dose response, Colon Cancer
UO-31 [2] = test: NCI DTP in-vitro dose response, Renal Cancer
OVCAR-4 = test: in vitro test at 1.0×10^−5 M, Ovary cancer cell; conditions: 1.0×10^−5 molal concentration (M)
U251 [3] = test: in vitro test at 1.0×10^−5 M, CNS cancer cell; conditions: 1.0×10^−5 molal concentration (M)
MALME-3M = test: in vitro test at 1.0×10^−5 M, Skin cancer cell; conditions: 1.0×10^−5 molal concentration (M)
UO-31 [4] = test: in vitro test at 1.0×10^−5 M, Kidney cancer cell; conditions: 1.0×10^−5 molal concentration (M)

O=C1c2ccccc2C(=O)c2c1ccc1nsnc21 [No. 22, Anthra[2,1-c][1,2,5]thiadiazole-6,11-dione]
GI50 (SN12C; Homo sapiens, SN12C): 2.35 µM
CC50 (SN12C; Homo sapiens, SN12C, read-out: LC50): > 100 µM
Percent Growth (SN12C; Log10 Concentration −4.0): −35%
Percent Growth (SN12C; Log10 Concentration −5.0): −7%
Percent Growth (SN12C; Log10 Concentration −6.0): 83%
Percent Growth (SN12C; Log10 Concentration −7.0): 103%
Percent Growth (SN12C; Log10 Concentration −8.0): 91%
TGI (SN12C; SN12C): 8.42E−6
GI50 (SW-620; Homo sapiens, SW-620): 8.55 µM
CC50 (SW-620; Homo sapiens, SW-620, read-out: LC50): 69.2 µM
Percent Growth (SW-620; Log10 Concentration −4.0): −68%
Percent Growth (SW-620; Log10 Concentration −5.0): 46%
Percent Growth (SW-620; Log10 Concentration −6.0): 107%
Percent Growth (SW-620; Log10 Concentration −7.0): 103%
Percent Growth (SW-620; Log10 Concentration −8.0): 106%
TGI (SW-620; SW-620): 2.52E−5
TGI (HCT-116; HCT-116): 1.06E−5
GI50 (HCT-116; Homo sapiens, HCT-116): 2.84 µM
CC50 (HCT-116; Homo sapiens, HCT-116, read-out: LC50): > 100 µM
Percent Growth (HCT-116; Log10 Concentration −4.0): −31%
Percent Growth (HCT-116; Log10 Concentration −5.0): 1%
Percent Growth (HCT-116; Log10 Concentration −6.0): 91%
Percent Growth (HCT-116; Log10 Concentration −7.0): 97%
Percent Growth (HCT-116; Log10 Concentration −8.0): 99%
GI50 (SK-MEL-28; Homo sapiens, SK-MEL-28): 9.88 µM
CC50 (SK-MEL-28; Homo sapiens, SK-MEL-28, read-out: LC50): 50.3 µM
Percent Growth (SK-MEL-28; Log10 Concentration −4.0): −93%
Percent Growth (SK-MEL-28; Log10 Concentration −5.0): 50%
Percent Growth (SK-MEL-28; Log10 Concentration −6.0): 107%
Percent Growth (SK-MEL-28; Log10 Concentration −7.0): 106%
Percent Growth (SK-MEL-28; Log10 Concentration −8.0): 103%
TGI (SK-MEL-28; SK-MEL-28): 2.24E−5
TGI (HCC-2998; HCC-2998): 4.20E−6
GI50 (HCC-2998; Homo sapiens, HCC 2998): 2.12 µM
CC50 (HCC-2998; Homo sapiens, HCC 2998, read-out: LC50): 8.32 µM
Percent Growth (HCC-2998; Log10 Concentration −4.0): −70%
Percent Growth (HCC-2998; Log10 Concentration −5.0): −63%
Percent Growth (HCC-2998; Log10 Concentration −6.0): 105%
Percent Growth (HCC-2998; Log10 Concentration −7.0): 103%
Percent Growth (HCC-2998; Log10 Concentration −8.0): 109%
GI50 (SF-539; Homo sapiens, SF-539): 1.52 µM
CC50 (SF-539; Homo sapiens, SF-539, read-out: LC50): 5.38 µM
Percent Growth (SF-539; Log10 Concentration −4.0): −98%
Percent Growth (SF-539; Log10 Concentration −5.0): −99%
Percent Growth (SF-539; Log10 Concentration −6.0): 83%
Percent Growth (SF-539; Log10 Concentration −7.0): 84%
Percent Growth (SF-539; Log10 Concentration −8.0): 90%
TGI (SF-539; SF-539): 2.86E−6
GI50 (KM12; Homo sapiens, KM12): 11.4 µM
CC50 (KM12; Homo sapiens, KM12, read-out: LC50): 94.8 µM
TGI (KM12; KM12): 3.28E−5
Percent Growth (KM12; Log10 Concentration −4.0): −53%
Percent Growth (KM12; Log10 Concentration −5.0): 56%
Percent Growth (KM12; Log10 Concentration −6.0): 103%
Percent Growth (KM12; Log10 Concentration −7.0): 108%
Percent Growth (KM12; Log10 Concentration −8.0): 107%
GI50 (SF-295; Homo sapiens, SF-295): 3.08 µM
CC50 (SF-295; Homo sapiens, SF-295, read-out: LC50): 93.9 µM
Percent Growth (SF-295; Log10 Concentration −4.0): −51%
Percent Growth (SF-295; Log10 Concentration −5.0): −3%
Percent Growth (SF-295; Log10 Concentration −6.0): 100%
Percent Growth (SF-295; Log10 Concentration −7.0): 105%
Percent Growth (SF-295; Log10 Concentration −8.0): 102%
TGI (SF-295; SF-295): 9.40E−6
GI50 (MDA-MB-468; Homo sapiens, MDA-MB-468): 1.83 µM
CC50 (MDA-MB-468; Homo sapiens, MDA-MB-468, read-out: LC50): 5.72 µM
Percent Growth (MDA-MB-468; Log10 Concentration −4.0): −99%
Percent Growth (MDA-MB-468; Log10 Concentration −5.0): −99%
Percent Growth (MDA-MB-468; Log10 Concentration −6.0): 103%
Percent Growth (MDA-MB-468; Log10 Concentration −7.0): 101%
Percent Growth (MDA-MB-468; Log10 Concentration −8.0): 97%
TGI (MDA-MB-468; MDA-MB-468): 3.24E−6
GI50 (UACC-62; Homo sapiens, UACC-62): 2.31 µM
CC50 (UACC-62; Homo sapiens, UACC-62, read-out: LC50): 96.2 µM
Percent Growth (UACC-62; Log10 Concentration −4.0): −50%
Percent Growth (UACC-62; Log10 Concentration −5.0): −23%
Percent Growth (UACC-62; Log10 Concentration −6.0): 92%
Percent Growth (UACC-62; Log10 Concentration −7.0): 91%
Percent Growth (UACC-62; Log10 Concentration −8.0): 89%
TGI (UACC-62; UACC-62): 6.29E−6
TGI (CAKI-1; CAKI-1): 6.16E−6
GI50 (CAKI-1; Homo sapiens, CAKI-1): 2.18 µM
CC50 (CAKI-1; Homo sapiens, CAKI-1, read-out: LC50): 41.5 µM
Percent Growth (CAKI-1; Log10 Concentration −4.0): −66%
Percent Growth (CAKI-1; Log10 Concentration −5.0): −23%
Percent Growth (CAKI-1; Log10 Concentration −6.0): 88%
Percent Growth (CAKI-1; Log10 Concentration −7.0): 95%
Percent Growth (CAKI-1; Log10 Concentration −8.0): 90%
GI50 (U251 [1]; Homo sapiens, U-251): 1.6 µM
CC50 (U251 [1]; Homo sapiens, U-251, read-out: LC50): 8.32 µM
Percent Growth (U251 [1]; Log10 Concentration −4.0): −63%
Percent Growth (U251 [1]; Log10 Concentration −5.0): −61%
Percent Growth (U251 [1]; Log10 Concentration −6.0): 78%
Percent Growth (U251 [1]; Log10 Concentration −7.0): 104%
Percent Growth (U251 [1]; Log10 Concentration −8.0): 106%
TGI (U251 [1]; U251): 3.65E−6
GI50 (M14; Homo sapiens, M14): 2.44 µM
CC50 (M14; Homo sapiens, M14, read-out: LC50): > 100 µM
Percent Growth (M14; Log10 Concentration −4.0): −41%
Percent Growth (M14; Log10 Concentration −5.0): −32%
Percent Growth (M14; Log10 Concentration −6.0): 102%
Percent Growth (M14; Log10 Concentration −7.0): 100%
Percent Growth (M14; Log10 Concentration −8.0): 100%
TGI (M14; M14): 5.78E−6
GI50 (T-47D; Homo sapiens, T47D): 0.375 µM
CC50 (T-47D; Homo sapiens, T47D, read-out: LC50): 7.79 µM
Percent Growth (T-47D; Log10 Concentration −4.0): −60%
Percent Growth (T-47D; Log10 Concentration −5.0): −59%
Percent Growth (T-47D; Log10 Concentration −6.0): 22%
Percent Growth (T-47D; Log10 Concentration −7.0): 88%
Percent Growth (T-47D; Log10 Concentration −8.0): 91%
TGI (T-47D; T-47D): 1.87E−6
TGI (HT29; HT29): 7.36E−6
GI50 (HT29; Homo sapiens, HT-29): 2.75 µM
CC50 (HT29; Homo sapiens, HT-29, read-out: LC50): 81 µM
Percent Growth (HT29; Log10 Concentration −4.0): −53%
Percent Growth (HT29; Log10 Concentration −5.0): −16%
Percent Growth (HT29; Log10 Concentration −6.0): 101%
Percent Growth (HT29; Log10 Concentration −7.0): 105%
Percent Growth (HT29; Log10 Concentration −8.0): 104%
GI50 (UO-31 [2]; Homo sapiens, UO-31): 1.95 µM
CC50 (UO-31 [2]; Homo sapiens, UO-31, read-out: LC50): 7.41 µM
Percent Growth (UO-31 [2]; Log10 Concentration −4.0): −66%
Percent Growth (UO-31 [2]; Log10 Concentration −5.0): −72%
Percent Growth (UO-31 [2]; Log10 Concentration −6.0): 100%
Percent Growth (UO-31 [2]; Log10 Concentration −7.0): 118%
Percent Growth (UO-31 [2]; Log10 Concentration −8.0): 111%
TGI (UO-31 [2]; UO-31): 3.81E−6

CCc1nc2ccc3c(c2[nH]1)C(=O)c1ccccc1C3=O [No. 4, 2-Ethyl-1(3)H-anthra[1,2-d]imidazole-6,11-dione]
inhibition effect on cancer cell line (Table 2 value) (OVCAR-4): 48.81
inhibition effect on cancer cell line (Table 2 value) (U251 [3]): 60.13
inhibition effect on cancer cell line (Table 2 value) (MALME-3M): 56.94
inhibition effect on cancer cell line (Table 2 value) (UO-31 [4]): 23.94

— US8445492B2, “Method for inhibiting growth of cancer cells and cell telomere and diseases of cell proliferation by using heteroannelated anthraquinone derivative compounds” (National Defense Medical Center, priority 2008, dated 2013)
